Reference: US9981968B2, “Substituted pyrrolo[2,3-d]pyrimidines for the treatment of cancer and proliferative disorders” (Northwestern University, priority 2013, dated 2018)

Assays:
Assay type in all cases: cell-based
K-562 = test: SRB growth assay, K-562; details: Homo sapiens, K562, K-562 (Leukemia), 48 hours, read-out: Percent viability
From the text: (§1) Tested cell lines included, Leukemia: CCRF-CEM, HL-60(TB), MOLT-4, RPMI-8226 and SR; Non-Small Cell Lung: A549/ATCC, EKVX, HOP-62, HOP-92, NCI-H226, NCI-H23, NCI-H322M, NCI-H460 and NCI-H522; Colon: COLO 205, HCC-2998, HCT-116, HCT-15. HT29, KM12 and SW-620; CNS: SF-268, SF-295, SF-539, SNB-19, SNB-75 and U251; Melanoma: LOX IMVI, MALME-3M, M14, MDA-MB-435, SK-MEL-2, SK-MEL-28, SK-MEL-5, UACC-257 and UACC-62; Ovarian: IGR-OV1, OVCAR-3, OVCAR-4, OVCAR-5, OVCAR-8. NCI/ADR-RES and SK-OV-3; Renal: 786-0, A498, ACHN, CAKI-1, RXF 393, SN12C, TK-10 and UO-31; Prostate: DU-145 and PC-3; and Breast: MCF7, MDA-MB-231/ATCC, MDA-MB-468, HS 578T, BT-549 and T-47D.
(§2) The cells were cultured in RPMI1640 media supplemented with 10% Fetal Bovine Serum (FBS), 2 mM glutamine and with 5% CO2 and 37° C. For experiment, 5% of FBS and 50 ug/mL of gentamycin were used. Test articles were 10 μM of NUCL 381-3 or 10 μM NUCL 383-3. The positive control was 10 μM of doxorubicin.
(§3) Cells were plated in 96 well plates. The cells were plated in triplicate. Cells were plated at the densities based on NCI recommendation. Time zero cells (Tz) were fixed the following day with 50% or 80% ice cold Trichloracetic acid (TCA) and washed 5× with water. At 48 hours post addition of treatments, all remaining plates were fixed in 80% ice cold Trichloracetic acid (TCA) and washed 5× with water. After drying, one hundred microliters of 0.4% Sulphorhodamine B (SRB) in 1% acetic acid was added to each plate including the Tzero plate and incubated for 10 minutes at room temperature. After 5 additional washes with 1% acetic acid, plates were allowed to dry. One hundred microliters of Trizma base was added to each well and plates were read at 515 nm.
(§4) Percent of growth was calculated by the following formulas: [Ti/C]×100, where: Tz=absorbance readings for wells at time zero without treatment; C=absorbance readings of untreated cells (without treatment); and Ti=absorbance reading of wells with treatment.

HOP-92 = test: SRB growth assay, HOP-92; details: Homo sapiens, HOP-92 (Non-Small Cell Lung), 48 hours, read-out: Percent viability
From the text: as §1, §2, §3, §4

NCI-H23 = test: SRB growth assay, NCI-H23; details: Homo sapiens, NCI-H23 (Non-Small Cell Lung), 48 hours, read-out: Percent viability
From the text: as §1, §2, §3, §4

NCI-H322M = test: SRB growth assay, NCI-H322M; details: Homo sapiens, NCI-H322M (Non-Small Cell Lung), 48 hours, read-out: Percent viability
From the text: as §1, §2, §3, §4

HT29 = test: SRB growth assay, HT29; details: Homo sapiens, HT-29, HT29 (Colon), 48 hours, read-out: Percent viability
From the text: as §1, §2, §3, §4

SW-620 = test: SRB growth assay, SW-620; details: Homo sapiens, SW-620 (Colon), 48 hours, read-out: Percent viability
From the text: as §1, §2, §3, §4

SF-295 = test: SRB growth assay, SF-295; details: Homo sapiens, SF-295 (CNS), 48 hours, read-out: Percent viability
From the text: as §1, §2, §3, §4

SF-539 = test: SRB growth assay, SF-539; details: Homo sapiens, SF-539 (CNS), 48 hours, read-out: Percent viability
From the text: as §1, §2, §3, §4

SNB-19 = test: SRB growth assay, SNB-19; details: Homo sapiens, SNB-19 (CNS), 48 hours, read-out: Percent viability
From the text: as §1, §2, §3, §4

SNB-75 = test: SRB growth assay, SNB-75; details: Homo sapiens, SNB-75 (CNS), 48 hours, read-out: Percent viability
From the text: as §1, §2, §3, §4

U251 = test: SRB growth assay, U251; details: Homo sapiens, U-251, U251 (CNS), 48 hours, read-out: Percent viability
From the text: as §1, §2, §3, §4

M14 = test: SRB growth assay, M14; details: Homo sapiens, M14 (Melanoma), 48 hours, read-out: Percent viability
From the text: as §1, §2, §3, §4

SK-MEL-28 = test: SRB growth assay, SK-MEL-28; details: Homo sapiens, SK-MEL-28 (Melanoma), 48 hours, read-out: Percent viability
From the text: as §1, §2, §3, §4

786-0 = test: SRB growth assay, 786-0; details: Homo sapiens, 786-0 (Renal), 48 hours, read-out: Percent viability
From the text: as §1, §2, §3, §4

CAKI-1 = test: SRB growth assay, CAKI-1; details: Homo sapiens, CAKI-1 (Renal), 48 hours, read-out: Percent viability
From the text: as §1, §2, §3, §4

RXF 393 = test: SRB growth assay, RXF 393; details: Homo sapiens, RXF 393 (Renal), 48 hours, read-out: Percent viability
From the text: as §1, §2, §3, §4

SN12C = test: SRB growth assay, SN12C; details: Homo sapiens, SN12C (Renal), 48 hours, read-out: Percent viability
From the text: as §1, §2, §3, §4

UO-31 = test: SRB growth assay, UO-31; details: Homo sapiens, UO-31 (Renal), 48 hours, read-out: Percent viability
From the text: as §1, §2, §3, §4

PC-3 = test: SRB growth assay, PC-3; details: Homo sapiens, PC-3 (Prostate), 48 hours, read-out: Percent viability
From the text: as §1, §2, §3, §4

DU-145 = test: SRB growth assay, DU-145; details: Homo sapiens, DU-145 (Prostate), 48 hours, read-out: Percent viability
From the text: as §1, §2, §3, §4

MDA-MB-231 = test: SRB growth assay, MDA-MB-231; details: Homo sapiens, MDA-MB-231 (Breast), 48 hours, read-out: Percent viability
From the text: as §1, §2, §3, §4

HS 578T = test: SRB growth assay, HS 578T; details: Homo sapiens, HS 578T (Breast), 48 hours, read-out: Percent viability
From the text: as §1, §2, §3, §4

T-47D = test: SRB growth assay, T-47D; details: Homo sapiens, T47D, T-47D (Breast), 48 hours, read-out: Percent viability
From the text: as §1, §2, §3, §4

| Structure (SMILES) | viability at 10 µM (K-562) [%] | viability at 10 µM (HOP-92) [%] | viability at 10 µM (NCI-H23) [%] | viability at 10 µM (NCI-H322M) [%] | viability at 10 µM (HT29) [%] | viability at 10 µM (SW-620) [%] | viability at 10 µM (SF-295) [%] | viability at 10 µM (SF-539) [%] | viability at 10 µM (SNB-19) [%] | viability at 10 µM (SNB-75) [%] | viability at 10 µM (U251) [%] | viability at 10 µM (M14) [%] | viability at 10 µM (SK-MEL-28) [%] | viability at 10 µM (786-0) [%] | viability at 10 µM (CAKI-1) [%] | viability at 10 µM (RXF 393) [%] | viability at 10 µM (SN12C) [%] | viability at 10 µM (UO-31) [%] | viability at 10 µM (PC-3) [%] | viability at 10 µM (DU-145) [%] | also measured |
| --- | --- | --- | --- | --- | --- | --- | --- | --- | --- | --- | --- | --- | --- | --- | --- | --- | --- | --- | --- | --- | --- |
| FC(F)(F)c1cn(CC2CCNCC2)c2ncnc(Cl)c12 [NUCC-0000381] | 8.38 | 56.8 | 42.3 | 68.1 | 33.3 | 27.2 | 44.4 | 7.4 | 28.9 | 83.3 | 15.1 | 96.2 | 93.3 | 94.2 | 86.8 | 12 | 42.1 | 19.7 | 8.43 | 29.8 | viability at 10 µM (MDA-MB-231): 48.5%; viability at 10 µM (HS 578T): 53.9%; viability at 10 µM (T-47D): 60.8% |
| CS(=O)(=O)N1CCC(Cn2cc(C(F)(F)F)c3c(Cl)ncnc32)CC1 [NUCC-0000383] | 10.2 | 97.6 | 46.1 | 53.8 | 30.3 | 25.7 | 56.2 | 4.93 | 21.4 | 23.3 | 2.47 | 78.5 | 4.54 | 69.5 | 46.8 | 7.81 | 25.8 | 3.37 | 3.55 | 11.2 | viability at 10 µM (MDA-MB-231): 33.9%; viability at 10 µM (HS 578T): 50.1%; viability at 10 µM (T-47D): 63.3% |
| COc1cccc2c1C(=O)c1c(O)c3c(c(O)c1C2=O)C[C@@](O)(C(=O)CO)C[C@@H]3O[C@H]1C[C@H](N)[C@H](O)[C@H](C)O1 [Doxorubicin, reference compound] | 17.1 | 98.5 | 27.6 | 42.6 | 34.9 | 19 | 11.2 | 6.83 | 37.3 | 36 | 22 | 25.5 | 29.7 | 17.6 | 0 | 8.68 | 45.4 | 28.2 | 50 | 72.5 | viability at 10 µM (MDA-MB-231): 41.8%; viability at 10 µM (HS 578T): 51.5%; viability at 10 µM (T-47D): 37.5% |
